Patent US12492232B2, “Methods for producing proteins” (South Australian Health and Medical Research Institute …, priority 2018, dated 2025)
“Also recorded” adds a separate entry of the source.

Assays:
[1] = test system: CHO cells stably expressing Gaussia luciferase (GLuc); assay: Secreted Gaussia luciferase assay in CHO cells stably expressing GLuc transfected with Rheb vectors; assay type: cell-based; details: for increase in secreted Gaussia luciferase: day 7, normalised to cell number
Description: CHO cells stably expressing Firefly luciferase (FLuc) or Gaussia luciferase (GLuc) as indicated were transfected using Lipofectamine3000 with an empty vector (EV) or vectors for Rheb WT, S21L, T23M, G29S, Y35N or E40K and also treated with the mTOR inhibitor AZD8055 at 100 nM for the total duration where indicated. Fluc and GLuc assays were performed 24 h after transfection and then every 48 h for 7 days. Assay results are normalised to cell number. GLuc-CHO cells were harvested for SDS-PAGE and Western Blot analysis at the 168 h (7-day) time-point to probe for intracellular GLuc, FLAG (Rheb) and actin, as ‘loading control’. […] However, Rheb-T23M and —Y35N caused a significant 3-fold increase in secreted Gaussia luciferase that was also seen with E40K and was prevented by treatment with AZD8055 (C/D [histogram of day 7]). In (E), secreted GLuc was monitored every 4 h from 24 h to 60 h showing the rate of secretion of GLuc was higher when Rheb-T23M is expressed as compared to Rheb-Y35N. The pattern for intracellular levels of Gaussia luciferase (assessed by immunoblot of cell lysates harvested at 7 days post transfection) more closely resemble those intracellular firefly luciferase (F) with little change compared to either the empty vector or WT while still retaining heightened mTORC1 signalling as indicated by the elevated levels of P-S6K1 Thr389 compared to cells transfected with the empty vector. CHO cells expressing Rheb-T23M, Y35N and E40K show a small increases in general protein synthesis but a marked increase in secreted Gaussia protein that is blocked by mTOR inhibition. Thus, Rheb[T23M] selectively promotes production of the secreted protein GLuc in a process that requires mTOR signalling.
Constructs were introduced into CHO cells using Lipofectamine3000 (Life Technologies) according to the manufacturer's protocol. Cell lines stably expressing secreted luciferase were generated by cloning the GLuc gene with a signal sequence from Nanolight Technology (see paper sent with this version) and cloning this into the pcDNA4 commercially available vector where gene expression was driven by a CMV promoter. The subsequent vectors were transfected, using lipofectamine, into CHO-S freestyle suspension cells and grown in CD-CHO media and then stable transfectant pools selected by addition of zeocin antibiotic. Once stable pools had emerged these were subjected to limited dilution cloning to obtain a range of pools with different secreted GLuc expression levels. Methods as are described, for example, in Josse et al. (2009) Biotechnology and Bioengineering 105: 556-566.
For Gaussia luciferase, we employed the BioLux® Gaussia Luciferase Assay Kit (New England Biolabs (NEB), Cat. No. E3300S) and for firefly luciferase the Luciferase Assay System from Promega (Cat. No. E1500). Cells were grown in Ham's F12 medium F12 nutrient mix, Ham's (Life Technologies, Cat. No. 11765054).
CHO cells stably expressing Firefly luciferase (FLuc; which is cytoplasmic) or Gaussia luciferase (GLuc; which is secreted) as indicated were transfected using Lipofectamine3000 with an empty vector (EV) or vectors for Rheb WT, S21L, T23M, G29S, Y35N or E40K and treated with the mTOR inhibitor AZD8055 at 100 nM for the total duration where appropriate. Fluc and GLuc assays were performed at 24 h after transfection and then every 48 h for 7 days. Assay results were normalised to cell number. […]

TSC1/TSC2 = assay: GAP assay: TSC1/TSC2-promoted hydrolysis of GTP bound to recombinant GST-Rheb; assay type: biochemical; details: FLAG-TSC1, FLAG-TSC2, [α-32P]GTP, n=3
From the text: FIGS. 1A-1B: Recombinant GST-Rheb proteins were subjected to GAP assay in the presence of FLAG-TSC1, FLAG-TSC2 and [α-^32P] GTP. GST-Rheb bound to GDP or GTP was pulled down using glutathione beads and the nucleotides were then separated by thin-layer chromatography and visualized by phosphorimager. The positions of GDP and GTP are shown (FIG. 1A). […] FIGS. 1C-1D: CHO cells were co-transfected using Lipofectamine 3000 with vectors encoding wildtype (WT) Rheb or the indicated mutants and TSC1/2 as indicated. 36 h after transfection, cells were transferred to Ham's F12 media lacking FBS for 16 h. Cells were the transferred to Dulbecco's phosphate-buffered saline (D-PBS, which lacks amino acids) for 1 h before cell lysates were harvested for SDS-PAGE and Western Blotting analysis using the indicated antibodies. […] This effect is consistent with lack of sensitivity of the mutant Rhebs to TSC1/TSC2. Thus the Rheb mutants S21L, T23M, G29S, Y35N and E40K promote mTORC1 signalling in the absence of upstream activation due to insensitivity to the GAP activity of the TSC complex.
A) Recombinant GST-Rheb proteins were subjected to GTPase assays in the presence of FLAG-TSC1, FLAG-TSC2 and [α-^32P]GTP. Nucleotide-bound GST-Rheb was purified from the reaction mixture using 20 μl glutathione bead slurry. Radioactive GDP and GTP were separated by thin-layer chromatography and visualized by phosphorimager.

mTORC1 signalling = mTORC1 signalling (Western blot, S6K1 and rpS6) in transfected CHO cells starved of serum and amino acids, with or without TSC1/2 co-transfection; assay type: cell-based; details: for mTORC1 signalling in the absence of upstream activation: no serum 16 h, D-PBS 1 h, compared to empty vector and Rheb-WT; for mTORC1 signalling when co-transfected with TSC1/TSC2: no serum and amino acids
Description: GTP. GST-Rheb bound to GDP or GTP was pulled down using glutathione beads and the nucleotides were then separated by thin-layer chromatography and visualized by phosphorimager. The positions of GDP and GTP are shown (FIG. 1A). […] FIGS. 1C-1D: CHO cells were co-transfected using Lipofectamine 3000 with vectors encoding wildtype (WT) Rheb or the indicated mutants and TSC1/2 as indicated. 36 h after transfection, cells were transferred to Ham's F12 media lacking FBS for 16 h. Cells were the transferred to Dulbecco's phosphate-buffered saline (D-PBS, which lacks amino acids) for 1 h before cell lysates were harvested for SDS-PAGE and Western Blotting analysis using the indicated antibodies.

[2] = test system: mTORC1 localisation at the lysosome; assay: Immunofluorescence of mTOR and LAMP1 colocalisation in serum-starved transfected CHO cells; assay type: cell-based; details: medium lacking FBS for 16 h
Description: (§1) 24 h after transfection cells were transferred to medium lacking FBS for 16 hours. Cells were fixed with 4% paraformaldehyde, permeabilized with 0.05% Triton X-100, blocked with 10% normal donkey serum before LAMP1 and then anti-mTOR antibodies were applied overnight. Alexa Fluor™ 488 and 594-labelled secondary antibodies were applied before cells were mounted and stained with DAPI.
as §1, with “h.” for “hours.”, “mTOR” for “then anti-mTOR”, “594” for “594-labelled”

ExpiCHO-S™ cells = assay: Rabbit IgG secretion by ExpiCHO-S cells stably expressing Rheb variants (Easy-Titer Rabbit IgG Assay); assay type: cell-based; details: single replicate; compared to Rheb-WT or Rheb-Y35N
Description: Materials and Methods: ExpiCHO-S™ cells were purchased from ThermoFischer Scientific and cultured in ExpiCHO™ Expression Medium at 37° C. at 8% CO2. […] Transfected cells were grown in 600 μg/mL […] for 6 weeks. Surviving cells were plated as single cells in a 96-well plate and monoclonal colonies selected for FLAG-Rheb expression.
Rabbit IgG secretion was determined using the ExpiCHO™ Expression system according to the manufacturer's instructions. Briefly, ExpiCHO™ cells expressing either endogenous Rheb or stably expressing exogenous Rheb were seeded at 6×10^6 cells/mL in 25 mL of ExpiCHO™ Expression Medium and transfected with 20 μg of a pcDNA3.1 vector encoding heavy and light chains of Rabbit IgG at a 1:2 ratio of heavy chain:light chain using ExpiFectamine™ CHO Reagent. 24 hours after transfection, cells were feed with ExpiCHO™ Feed and ExpiFectamine™ CHO Enhancer and transferred to 32° C., 5% CO2. Cells were allowed to grow for 10 days with 100 μL samples taken every day. After 10 days, Cells were pelleted by centrifugation at 4000×g for 30 minutes at 4° C. and the supernatant filtered through a […] PVFD filter and collected. IgG yield was determined using Easy-Titer™ Rabbit IgG Assay kit and calculated from a standard curve.

[3] = test system: mTORC1 and ER Stress activation markers; assay: Western blot for mTORC1 and ER stress activation markers in ExpiCHO cells stably expressing Rheb variants; assay type: cell-based
[4] = test system: CHO cells stably expressing Firefly luciferase (FLuc); assay: Firefly luciferase assay in CHO cells stably expressing FLuc transfected with Rheb vectors; assay type: cell-based; details: day 7, normalised to cell number
Description: CHO cells stably expressing Firefly luciferase (FLuc) or Gaussia luciferase (GLuc) as indicated were transfected using Lipofectamine3000 with an empty vector (EV) or vectors for Rheb WT, S21L, T23M, G29S, Y35N or E40K and also treated with the mTOR inhibitor AZD8055 at 100 nM for the total duration where indicated. Fluc and GLuc assays were performed 24 h after transfection and then every 48 h for 7 days. Assay results are normalised to cell number. GLuc-CHO cells were harvested for SDS-PAGE and Western Blot analysis at the 168 h (7-day) time-point to probe for intracellular GLuc, FLAG (Rheb) and actin, as ‘loading control’. […] In (E), secreted GLuc was monitored every 4 h from 24 h to 60 h showing the rate of secretion of GLuc was higher when Rheb-T23M is expressed as compared to Rheb-Y35N. The pattern for intracellular levels of Gaussia luciferase (assessed by immunoblot of cell lysates harvested at 7 days post transfection) more closely resemble those intracellular firefly luciferase (F) with little change compared to either the empty vector or WT while still retaining heightened mTORC1 signalling as indicated by the elevated levels of P-S6K1 Thr389 compared to cells transfected with the empty vector. […]

Compound | hydrolysis of GTP bound to Rheb promoted by TSC1/TSC2 (TSC1/TSC2) | mTORC1 signalling in the absence of upstream activation (mTORC1 signalling) | mTORC1 signalling when co-transfected with TSC1/TSC2 (mTORC1 signalling) | further results
COc1ccc(-c2ccc3c(N4CCOC[C@@H]4C)nc(N4CCOC[C@@H]4C)nc3n2)cc1CO [AZD8055, reference compound] |  |  |  | effect on the Rheb mutant-induced increase in secreted Gaussia luciferase ([1]; AZD8055 at 100 nM for the total duration): prevented
G29S: Rheb mutant G29S created by site-directed mutagenesis of human Rheb [Rheb G29S] | partial resistance; also recorded: a small degree of hydrolysis | increased mTORC1 signalling over both the empty vector and Rheb-WT | no reduction | 
G63A: Rheb mutant G63A tested in the GAP assay [Rheb G63A] | completely unable to promote hydrolysis of GTP; also recorded: did not promote hydrolysis of GTP |  |  | 
Q64L: Rheb mutant Q64L tested in the GAP assay [Rheb Q64L] | partial resistance; also recorded: a small degree of hydrolysis |  |  | 
Rheb-E40K: human Rheb protein with a lysine variant at residue 40 (E40K), SEQ ID NO. 5 | completely unable to promote hydrolysis of GTP; also recorded: did not promote hydrolysis of GTP | increased mTORC1 signalling over both the empty vector and Rheb-WT | no reduction | mTOR localisation to the lysosome (overlap with LAMP1) [2]: promote localisation; also recorded: mTORC1 localisation at the lysosome is maintained; increase in secreted Gaussia luciferase [1]: 3 fold; rate of IgG secretion determined daily over 10 days (ExpiCHO-S™ cells): maintain a constant rate of IgG secretion over a longer period; ER stress response (Western blot markers) [3]: mild ER stress response; mTORC1 signalling (Western blot markers) [3]: increased mTORC1 signalling
Rheb-S21L: Rheb mutant S21L created by site-directed mutagenesis of human Rheb | completely unable to promote hydrolysis of GTP; also recorded: did not promote hydrolysis of GTP | increased mTORC1 signalling over both the empty vector and Rheb-WT | no reduction | 
Rheb-Y35N: human Rheb protein with an asparagine variant at residue 35 (Y35N), SEQ ID NO. 4 | completely unable to promote hydrolysis of GTP; also recorded: did not promote hydrolysis of GTP | increased mTORC1 signalling over both the empty vector and Rheb-WT | no reduction | mTOR localisation to the lysosome (overlap with LAMP1) [2]: promote localisation; also recorded: strong mTOR localisation on lysosomes; increase in synthesis of intracellular Firefly luciferase compared to the empty vector [4]: ca. 1.2 fold; increase in secreted Gaussia luciferase [1]: 3 fold
